Data from PMC9414684, “Quantitative Structure–Neurotoxicity Assessment and In Vitro Evaluation of Neuroprotective and MAO-B Inhibitory Activities of Series N′-substituted 3-(1,3,7-trimethyl-xanthin-8-ylthio)propanehydrazides” (Molecules, 2022).

What was measured:
[1] = system: isolated rat brain synaptosomes; assay: Synaptosomal viability (MTT test), compounds applied alone; format: cell-based; settings: 100 µmol; for relative synaptosomal vitality (RV): synaptosomal viability relative to caffeine (1) = 1; for decrease of synaptosomal viability: applied alone, against the control (untreated synaptosomes); for neurotoxicity on synaptosomes in words: single application, compared to the control and to caffeine
Method: (§1) The synaptosomes and mitochondria were prepared as explained in [54, 55] with the help of a colloidal silicon solution (Percoll): 1. Preparation of 90% stock solution of Percoll. 2. Preparation of Percoll solutions with two concentrations, 16% and 10%. An amount of 4 ml of Percoll 16% and 10% were added in the tubes. 3. An amount of 90% Percoll (7.5% Percoll) was added to the sediment from the last centrifugation. The tubes were centrifuged for 20 min at 15,000× g at 4 °C, resulting in the formation of three layers. The lower layer contained mitochondria, the upper layer, lipids and the middle layer (between 16% and 10% Percoll), synaptosomes. The middle and the lower layers of each tube were harvested and buffer B with glucose was added. The mixture was centrifuged at 10,000× g for 20 min at 4 °C. After centrifugation, the sediment with the synaptosomes and mitochondria was mixed with buffer B with glucose.
After the incubation, the synaptosomes were centrifuged three times at 15,000× g for 1 min. An MTT test was performed to determine synaptosomal vitality by the method described in the literature. […]

[2] = system: isolated rat synaptosomes; assay: 6-OHDA-induced oxidative stress model, GSH level; format: cell-based; settings: for GSH levels stored (protected): 6-OHDA-induced oxidative stress, against the toxic agent
Method: The level of reduced glutathione was determined by measuring the non-protein SH-groups after precipitation of the proteins with trichloroacetic acid. After the incubation, synaptosomes were centrifuged at 400× g for 3 min. These diment were treated with 5% trichloroacetic acid and left for 10 min on ice. Samples were centrifuged at 8000× g for 10 min (2 °C). The supernatant was removed to determine the level of GSH and was stored at −20 °C. Immediately before the measurement, the samples were neutralized with 5 N NaOH.
The presence of thiols in the supernatant was determined using Ellman’s reagent. The resulting yellow color was measured spectrophotometrically at λ = 412 nm.
This in vitro model resembles the neurodegenerative processes occurring in PD. Dopamine metabolism and oxidation lead to the formation of ROS and reactive quinones. They induce dopamine neurotoxicity and neurodegeneration. The synaptosomes were incubated with 150 μmol 6-OHDA for 1 h.

[3] = system: isolated rat synaptosomes; assay: 6-OHDA-induced oxidative stress model, synaptosomal vitality; format: cell-based; settings: against the toxic agent
Method: After the incubation, the synaptosomes were centrifuged three times at 15,000× g for 1 min. An MTT test was performed to determine synaptosomal vitality by the method described in the literature [56]. […] The synaptosomes were incubated with 150 μmol 6-OHDA for 1 h [58].

[4] = system: isolated rat microsomes; assay: Fe2+/AA-induced lipid peroxidation model, MDA production; format: cell-based; settings: 100 µmol, compared to the toxic agent
Method: The microsomes were pre-incubated with the analyzed compounds for 15 min at 37 °C. The reaction was started with a solution of iron sulphate 20 μmol and ascorbic acid 0.5 mmol. […] After starting the reaction, the LPO and the MDA quantity was assessed [62].
The quantity of the lipid peroxidation product MDA was assessed, using the method, described in the literature [62].

[5] = system: isolated rat brain microsomes; assay: MDA production in isolated brain microsomes, compounds applied alone; format: cell-based; settings: 100 µmol; for pro-oxidant effect (MDA production): applied alone, compared to the control (untreated microsomes); for neurotoxicity on microsomes in words: tested alone, compared to the control and to caffeine
Method: The brain microsomes were prepared according to the procedure described in [61]. […] The homogenate was centrifugated at 17,000× g for 30 min. The pellet was suspended in 4 vol of the homogenization buffer and centrifuged at 17,000× g for a further period of 30 min. The supernatants from both centrifugations were combined (post-mitochondrial supernatant) and centrifuged at 100,000× g for 1 h. The pellet was resuspended in the above buffer and centrifuged at 100,000× g for 1 h. The resulting pellet was frozen in the buffer with glycerol.
The quantity of the lipid peroxidation product MDA was assessed, using the method, described in the literature.
Analysis of quantitative structure–neurotoxicity relationships employed the data from in vitro assessments of synaptosome viability (%) and MDA production in microsomal fractions (nmol/0.1 mg protein) as indicators for the neurotoxicity of compounds.

[6] = system: isolated rat brain mitochondria; assay: MDA production in isolated brain mitochondria, compounds applied alone; format: cell-based; settings: 100 µmol, against the control (untreated mitochondria)
Method: The synaptosomes and mitochondria were prepared as explained in [54, 55] with the help of a colloidal silicon solution (Percoll): 1. […] An amount of 4 ml of Percoll 16% and 10% were added in the tubes. 3. An amount of 90% Percoll (7.5% Percoll) was added to the sediment from the last centrifugation. The tubes were centrifuged for 20 min at 15,000× g at 4 °C, resulting in the formation of three layers. The lower layer contained mitochondria, the upper layer, lipids and the middle layer (between 16% and 10% Percoll), synaptosomes. The middle and the lower layers of each tube were harvested and buffer B with glucose was added. The mixture was centrifuged at 10,000× g for 20 min at 4 °C. After centrifugation, the sediment with the synaptosomes and mitochondria was mixed with buffer B with glucose. […] After that, the tubes were maintained in a bath filled with boiling water. Finally, the tubes were transferred to an ice bath and butanol (0.4 mL) was poured into each tube. In the next stage, centrifugation of the tubes was carried out at 3500× g for 10 min. Following that, assessment of the total quantity of MDA shaped in each sample was carried out using a spectrophotometer (UV-Vis Split) to measure the supernatant’s absorbance at 532 nm. The mitochondria were incubated with 75 µmol t-BuOOH [59]. The quantity of the lipid peroxidation product MDA was assessed, using the method, described in the literature.

[7] = system: isolated rat brain mitochondria; assay: GSH level in isolated brain mitochondria, compounds applied alone; format: cell-based; settings: 100 µmol, against the control (untreated mitochondria)
Method: as §1
The DNTB spectrophotometric technique explained in [60] was applied for GSH content measurement in brain mitochondria. Then, 0.04% DTNB was mixed with the mitochondrial suspensions (0.5 mg protein/mL) in 0.1 mol/L of phosphate buffers (pH 7.4). The development of the yellow color was read at 412 nm (spectrophotometer UV-Vis Split).

[8] = biological target: T1, human recombinant MAO-B enzyme (hMAOB) (Homo sapiens, UniProt P27338); assay: Monoamine oxidase B activity, fluorimetric Amplex Ultra Red assay, tyramine substrate; format: biochemical; settings: 1 µmol, applied alone, against the control (pure hMAOB)
T1 sequence (P27338 1-520): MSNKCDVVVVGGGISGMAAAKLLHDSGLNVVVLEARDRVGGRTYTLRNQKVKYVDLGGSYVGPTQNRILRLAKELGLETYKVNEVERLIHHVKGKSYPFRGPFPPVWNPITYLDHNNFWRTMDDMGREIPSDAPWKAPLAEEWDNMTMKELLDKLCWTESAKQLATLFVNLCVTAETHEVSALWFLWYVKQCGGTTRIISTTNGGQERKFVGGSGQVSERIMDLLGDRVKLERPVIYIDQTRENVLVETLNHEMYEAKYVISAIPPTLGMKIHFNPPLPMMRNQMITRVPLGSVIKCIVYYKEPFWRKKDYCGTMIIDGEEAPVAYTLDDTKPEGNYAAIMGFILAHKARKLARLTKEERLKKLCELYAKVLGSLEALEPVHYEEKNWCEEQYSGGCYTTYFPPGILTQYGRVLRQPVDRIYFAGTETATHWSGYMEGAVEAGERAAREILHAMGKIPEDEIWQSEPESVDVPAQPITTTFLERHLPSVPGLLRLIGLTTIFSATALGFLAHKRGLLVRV
Method: Monoamine oxidase activity assay of recombinant human MAO-B was performed using a fluorimetric method by Amplex Ultra Redreagent [63]. Tyramine hydrochloride was used as substrate.
The MAO-B activity was normalized as a percentage of the untreated control set as 100% and the results were expressed as mean values and standard deviation (±SD). Statistical analysis was performed by one-way analysis of variance (ANOVA) with a post hoc multiple comparisons procedure (Dunnet’s test) to assess the statistical differences in case of normal distribution. Values of p < 0.05, p < 0.01 and p < 0.001 were considered as statistically significant.

[9] = biological target: MAO-B; set-up: method as in PMID 19342233; settings: MAO-B inhibitor activity; cited from earlier work

Cn1c(=O)c2c(nc(SCCC(=O)NN=Cc3ccccc3)n2C)n(C)c1=O [6a]
relative synaptosomal vitality (RV) [1]: 0.743

Cn1c(=O)c2c(nc(SCCC(=O)NN=Cc3c(Cl)cccc3Cl)n2C)n(C)c1=O [6c]
relative synaptosomal vitality (RV) [1]: 0.689

Cn1c(=O)c2c(nc(SCCC(=O)NN=Cc3ccc(C(F)(F)F)cc3)n2C)n(C)c1=O [6f]
relative synaptosomal vitality (RV) [1]: 0.757

Cc1cc(C)c(C=NNC(=O)CCSc2nc3c(c(=O)n(C)c(=O)n3C)n2C)c(C)c1 [6m]
relative synaptosomal vitality (RV) [1]: 0.716

NCCc1cc(O)c(O)cc1O [6-OHDA, 6-hydroxydopamine, reference compound]
decrease of GSH levels by the toxic agent ([2]; 6-OHDA applied alone (150 μmol, 1 h), against the control (untreated synaptosomes)): 50%

COc1cc(C=NNC(=O)CCSc2nc3c(c(=O)n(C)c(=O)n3C)n2C)cc(OC)c1OC [6h]
relative synaptosomal vitality (RV) [1]: 0.703

Cn1c(=O)c2c(nc(SCCC(=O)NN=Cc3ccccc3O)n2C)n(C)c1=O [6l, N′-(2-hydroxybenzylidene)-3-(1,3,7-trimethyl-2,6-dioxo-2,3,6,7-tetrahydro-1H-purin-8-ylthio)propanehydrazide]
protection of synaptosomal vitality [3]: 36% | reduction of MDA production [4]: 50% | pro-oxidant effect (MDA production) [5]: did not show any statistically significant pro-oxidant effect | neurotoxicity on microsomes in words [5]: lowest neurotoxicity | change of MDA production [6]: did not change statistically significantly | neurotoxic effect on GSH level [7]: did not show any statistically significant neurotoxic effect | decrease of synaptosomal viability [1]: 28% | neurotoxicity on synaptosomes in words [1]: lowest neurotoxicity | relative synaptosomal vitality (RV) [1]: 0.973 | GSH levels stored (protected) [2]: 42% | inhibition of hMAOB activity [8]: 30%

COc1cccc(C=NNC(=O)CCSc2nc3c(c(=O)n(C)c(=O)n3C)n2C)c1OC [6k, N′-(2,3-dimethoxybenzylidene)-3-(1,3,7-trimethyl-2,6-dioxo-2,3,6,7-tetrahydro-1H-purin-8-ylthio)propanehydrazide]
protection of synaptosomal vitality [3]: 20% | reduction of MDA production [4]: 38% | pro-oxidant effect (MDA production) [5]: did not show any statistically significant pro-oxidant effect | neurotoxicity on microsomes in words [5]: lowest neurotoxicity | change of MDA production [6]: did not change statistically significantly | decrease of synaptosomal viability [1]: 29% | neurotoxicity on synaptosomes in words [1]: lowest neurotoxicity | relative synaptosomal vitality (RV) [1]: 0.959 | GSH levels stored (protected) [2]: 20% | inhibition of hMAOB activity [8]: 25%

COc1ccc(C=NNC(=O)CCSc2nc3c(c(=O)n(C)c(=O)n3C)n2C)cc1OC [6g]
relative synaptosomal vitality (RV) [1]: 0.716

Cn1c(=O)c2c(ncn2C)n(C)c1=O [compound 1, caffeine, reference compound]
pro-oxidant effect (MDA production) [5]: did not show any statistically significant pro-oxidant effect | neurotoxicity on microsomes in words [5]: lowest neurotoxicity | change of MDA production [6]: did not change statistically significantly | decrease of synaptosomal viability [1]: 26% | neurotoxicity on synaptosomes in words [1]: lowest neurotoxicity | Ki [9]: 3.6 mM | GSH levels stored (protected) [2]: 30%

COc1cc(C=NNC(=O)CCSc2nc3c(c(=O)n(C)c(=O)n3C)n2C)ccc1O [6j]
relative synaptosomal vitality (RV) [1]: 0.730

Cn1c(=O)c2c(nc(SCCC(=O)NN=Cc3ccc(Br)cc3)n2C)n(C)c1=O [6e]
relative synaptosomal vitality (RV) [1]: 0.743

Cn1c(=O)c2c(nc(SCCC(=O)NN=Cc3cccc(Cl)c3)n2C)n(C)c1=O [6d]
relative synaptosomal vitality (RV) [1]: 0.730

COc1cc(C=NNC(=O)CCSc2nc3c(c(=O)n(C)c(=O)n3C)n2C)cc(OC)c1O [6i]
relative synaptosomal vitality (RV) [1]: 0.743

Cn1c(=O)c2c(nc(SCCC(=O)NN=Cc3cccc([N+](=O)[O-])c3)n2C)n(C)c1=O [6o]
relative synaptosomal vitality (RV) [1]: 0.757

Cn1c(=O)c2c(nc(SCCC(=O)NN=Cc3ccc([N+](=O)[O-])cc3)n2C)n(C)c1=O [6b]
relative synaptosomal vitality (RV) [1]: 0.703

COc1cccc(C=NNC(=O)CCSc2nc3c(c(=O)n(C)c(=O)n3C)n2C)c1O [6n]
relative synaptosomal vitality (RV) [1]: 0.689
